Key:
[1] = biological target: Muscarinic acetylcholine receptor M3 (Homo sapiens, UniProt P20309); assay: Displacement of [3H]-NMS from human recombinant M3 receptor expressed in CHO cell membranes measured after 60 mins by topcount liquid scintillation counting
Cavia porcellus = assay: Bronchoprotective activity in Dunkan-Hartley guinea pig model of acetylcholine-induced bronchoconstriction assessed as efficacious dose that limited bronchrestriction response to 50 ug/mL dose of acetylcholine to doubling of baseline pulmonary resistance administered via nebulization for 10 mins measured at 1.5 hrs post dose by whole body plethysmography; type: functional

Chain of Muscarinic acetylcholine receptor M3 (P20309 whole entry): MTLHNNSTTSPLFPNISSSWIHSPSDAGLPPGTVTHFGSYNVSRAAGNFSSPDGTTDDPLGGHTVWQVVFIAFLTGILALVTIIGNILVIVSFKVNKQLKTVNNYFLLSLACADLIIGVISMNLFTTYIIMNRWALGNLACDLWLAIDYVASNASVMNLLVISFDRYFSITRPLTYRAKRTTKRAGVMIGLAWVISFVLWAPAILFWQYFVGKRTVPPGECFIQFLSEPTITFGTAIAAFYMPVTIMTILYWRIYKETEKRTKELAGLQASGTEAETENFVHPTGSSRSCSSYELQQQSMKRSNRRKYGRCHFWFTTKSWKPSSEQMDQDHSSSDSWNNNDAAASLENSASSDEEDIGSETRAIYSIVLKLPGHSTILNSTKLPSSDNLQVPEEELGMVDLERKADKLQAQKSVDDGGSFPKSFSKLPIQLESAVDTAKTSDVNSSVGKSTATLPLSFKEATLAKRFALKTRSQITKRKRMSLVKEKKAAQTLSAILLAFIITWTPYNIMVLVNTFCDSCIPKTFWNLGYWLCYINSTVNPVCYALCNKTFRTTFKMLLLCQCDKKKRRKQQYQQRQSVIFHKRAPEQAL

| Compound | Ki [1] [nM] | ED (Cavia porcellus) [µg/mL] |
| --- | --- | --- |
| CCN(CCN1CCC(OC(=O)Nc2ccccc2-c2ccccc2)CC1)C(=O)c1ccc(CN2CCC(C(N)=O)CC2)cc1 | < 5 | – |
| CN(CCN1CCC(OC(=O)Nc2ccccc2-c2ccccc2)CC1)C(=O)c1ccc(CN2CCC(C(N)=O)CC2)cc1 [REVEFENACIN] | – | <200 |

Reference: ChEMBL document CHEMBL3882243, “Biphenyl compounds useful as muscarinic receptor antagonists” (2005)
